Reference: US9169262B2, “Crystalline salts of Asenapine with organic di-acids and tri-acids” (SANDOZ AG, priority 2011, dated 2015)
Where a name gives a salt, the structure may show the parent alone.

Tests used:
[1] = Polymorphic stability: suspension equilibration in water, PXRD; assay type: physicochemical; details: 25° C., 600 rpm, two days
[2] = Water uptake / hygroscopicity by dynamic vapor sorption; assay type: physicochemical; details: for hygroscopic nature: dynamic vapor sorption; for water uptake (dynamic vapor sorption): up to 95% rel. humidity, citrate: most uptake above 80% relative humidity
Description: The hygroscopic nature of the citrate salt was investigated by dynamic vapor sorption.

[3] = Polymorphic stability: stirring in acetonitrile or organic solvent mixture, PXRD; details: for polymorph conversion in acetonitrile (PXRD): suspension in acetonitrile, room temperature, five days; for polymorph conversion in acetonitrile-acetone 1:1 (PXRD): suspension stirred at room/ambient temperature, four days
Description: The stability test is carried out by stirring the sample salt at 600 rpm in an amount of approximately 0.1 g/ml acetonitrile and optionally water as defined above. After 96 hours of stirring, the salt is removed by filtration and is dried and then subjected to X-ray powder diffraction analysis.

[4] = 23° C., pH=4.4; cited from earlier work
[5] = Solubility of Asenapine maleate in saturated solution (literature, Funke et al.); assay type: physicochemical; details: saturated aqueous solution, water, thermodynamic from solid; maleate solubility at 23° C., pH=4.4, translated into free base
Description: Certain crystalline addition salts of Asenapine, for instance a fumarate (EP 0569096), salts with sulfonic acids (WO98/54186), and a pamoate or hemipamoate salt (EP569096), are described in the literature. The pamoate salt is disclosed to be amorphous and the hemipamoate salt is a mixture of amorphous and crystalline phase, wherein the palmitate is described as oil. The marketed form is the maleate salt, which is disclosed to exist in polymorphic forms (WO 2006/106135). The known Asenapine salts have a low solubility in water.

[6] = listed as Asenapine citrate of the invention

| Compound | polymorph conversion in water suspension (PXRD) [1] | polymorph conversion in water suspension (PXRD) [1, 6] | hygroscopic nature [2] | water uptake (dynamic vapor sorption) [2] | polymorph conversion in acetonitrile (PXRD) [3] | polymorph conversion in acetonitrile (PXRD) [3, 6] | polymorph conversion in water suspension (PXRD) ([1]; listed as crystalline malonate of the invention) | polymorph conversion in acetonitrile-acetone 1:1 (PXRD) [3] | polymorph conversion in acetonitrile-acetone 1:1 (PXRD) ([3]; listed as crystalline Asenapine malonate of the invention) | concentration of saturated solution [4] [µg/mL] | solubility [5] [µg/mL] |
| --- | --- | --- | --- | --- | --- | --- | --- | --- | --- | --- | --- |
| CN1C[C@H]2c3ccccc3Oc3ccc(Cl)cc3[C@@H]2C1.O=C(O)CC(O)(CC(=O)O)C(=O)O [crystalline Asenapine citrate form I] | no phase transformation was observed | does not change its polymorphic form | not or only very slightly hygroscopic | about 1.5% | no phase transformation was observed | does not change its polymorphic form | – | – | – | – | – |
| CN1CC2c3ccccc3Oc3ccc(Cl)cc3C2C1.O=C(O)CC(=O)O (centres unmarked) [crystalline Asenapine malonate form I] | no phase transformation was observed | – | completely non-hygroscopic | less than 0.2% | – | – | no polymorph conversion was observed | no phase transformation was observed | No polymorph conversion | – | – |
| CN1CC2c3ccccc3Oc3ccc(Cl)cc3C2C1 (centres unmarked) [maleate salt of Asenapine] | – | – | – | – | – | – | – | – | – | 5800 | ~4100 |
